Patent publication EP4711368A1 (priority 2023, dated 2024)
Read-outs that look alike come from different tables or passages of the source.

How the values were obtained:
SD rats [1] = assay: animal or person; assay type: in vivo; details: rat, in vivo, iv
SD rats [2] = details: rat, in vivo; for MLD: iv
Wherever Onset time is given: test concentration or dose not given here.
Wherever Righting feflex duration is given: test concentration or dose not given here.
Wherever Sedation Duration is given: test concentration or dose not given here.

| SMILES | Minimal effective anesthetic dose (SD rats [1]) | Onset time (SD rats [1]) | Righting feflex duration (SD rats [1]) | Sedation Duration (SD rats [1]) | TI (SD rats [2]) | MLD (SD rats [2]) | MLD (SD rats [2]; SD) |
| --- | --- | --- | --- | --- | --- | --- | --- |
| Cc1cnc2n1-c1ccc(Br)cc1C(c1ccccn1)=NC2CCC(=O)OC1COC1 (stereo not shown) [Compound 4] | 15.0 mg/kg | 0.2 to 0.4 min | 1.1 to 3.5 min | 4.2 to 10.8 min | >1.5 | >22.5 mg/kg |  |
| CC(=O)C(C)(C)OC(=O)CCC1N=C(c2ccccn2)c2cc(Br)ccc2-n2c(C)cnc21 (stereo not shown) [Compound 6] | 1.3 mg/kg | 0.3 to 0.8 min | 0.6 to 3.4 min | 4.0 to 10.7 min | >3.8 | >5 mg/kg |  |
| CN1C(=O)C(CCC(=O)OC2(C)COC2)N=C(c2ccccn2)c2cc(Br)ccc21 (stereo not shown) [Compound 14] | 0.5 mg/kg | 0.2 to 0.7 min | 0.6 to 3.2 min | 3.5 to 7.0 min | >2 | >1 mg/kg |  |
| CN1C(=O)C(CCC(=O)OC2COC2)N=C(c2ccccn2)c2cc(Br)ccc21 (stereo not shown) [Compound 16] | 5.0 mg/kg | 0.2 to 0.5 min | 0.6 to 1.7 min | 3.2 to 5.3 min | >4.5 | >22.5 mg/kg |  |
| C#CC(C)(C)OC(=O)CCC1N=C(c2ccccn2)c2cc(Br)ccc2N(C)C1=O (stereo not shown) [Compound 17] | 1.3 mg/kg | 0.2 to 0.5 min | 1.6 to 3.3 min | 6.6 to 9.9 min | >3.8 | >5 mg/kg |  |
| CC(=O)C(C)(C)OC(=O)CCC1N=C(c2ccccn2)c2cc(Br)ccc2N(C)C1=O (stereo not shown) [Compound 18] | 0.5 mg/kg | 0.2 to 0.9 min | 0.8 to 4.2 min | 4.5 to 10.7 min | >2.4 | >1.2 mg/kg |  |
| C=CC(C)(C)OC(=O)CCC1N=C(c2ccccn2)c2cc(Br)ccc2N(C)C1=O (stereo not shown) [Compound 19] | 1.0 mg/kg | 0.4 to 1.0 min | 1.2 to 5.5 min | 9.7 to 14.8 min | >1.9 | >1.9 mg/kg |  |
| C=CC(C)(C)OC(=O)CCC1N=C(c2cccc[n+]2[O-])c2cc(Br)ccc2N(C)C1=O (stereo not shown) [Compound 20] | 15.0 mg/kg | 0.3 to 0.5 min | 4.1 to 6.4 min | 17.0 to 20.3 min | >1.5 | >22.5 mg/kg |  |
| COC(=O)CCC1N=C(c2ccccn2)c2cc([N+](=O)[O-])ccc2N(C)C1=O (stereo not shown) [Compound 27] | 10.0 mg/kg | 0.2 to 0.5 min | 1.3 to 3.9 min | 4.4 to 10.7 min | >1.8 | >18 mg/kg |  |
| CCOC(=O)CCC1N=C(c2ccccn2)c2cc([N+](=O)[O-])ccc2N(C)C1=O (stereo not shown) [Compound 28] | 5.0 mg/kg | 0.2 to 0.5 min | 0.5 to 1.6 min | 4.1 to 7.3 min | >2.3 | >11.3 mg/kg |  |
| C#CC(C)(C)OC(=O)CCC1N=C(c2ccccn2)c2cc([N+](=O)[O-])ccc2N(C)C1=O (stereo not shown) [Compound 32] | 5.0 mg/kg | 0.2 to 0.4 min | 1.8 to 7.7 min | 21.1 to 45.7 min | 6.0 | 30 mg/kg |  |
| C=C1N=C(c2ccccn2)c2cc(Br)ccc2N(C)C1=O [Compound 36] | 10.0 mg/kg | 0.4 to 0.9 min | 0.7 to 4.1 min | 8.6 to 14.7 min | 1.9 | 18.7 mg/kg |  |
| CN1C(=O)C(CO)N=C(c2ccccn2)c2cc(Br)ccc21 (stereo not shown) [Compound 37] | 5.0 mg/kg | 0.3 to 0.6 min | 0.7 to 5.8 min | 15.3 to 21.3 min | >2.0 | >10 mg/kg |  |
| CCC(=O)OCC1N=C(c2ccccn2)c2cc(Br)ccc2N(C)C1=O (stereo not shown) [Compound 40] | 5.0 mg/kg | 0.2 to 0.5 min | 1.3 to 17.2 min | 40.2 to 364.0 min | 8.0 | 40 mg/kg |  |
| COC(=O)CC1N=C(c2ccccn2)c2cc(Br)ccc2N(C)C1=O (stereo not shown) [Compound 113] | 15.0 mg/kg | 0.2 to 0.3 min | 0.7 to 29.5 min | 20.6 to 77.7 min | 2.7 | 40 mg/kg |  |
| CC(C)OC(=O)CC1N=C(c2ccccn2)c2cc(Br)ccc2N(C)C1=O (stereo not shown) [Compound 114] | 0.5 mg/kg | 0.4 to 1.1 min | 0.8 to 27.6 min | 16.5 to 140.3 min | 40.0 | 20 mg/kg |  |
| CC(=O)OCCC1N=C(c2ccccn2)c2cc(Br)ccc2N(C)C1=O (stereo not shown) [Compound 115] | 2.5 mg/kg | 0.2 to 0.4 min | 4.9 to 14.1 min | 12.4 to 56.0 min | 16 | 40 mg/kg |  |
| CN1C(=O)C(CCO)N=C(c2ccccn2)c2cc(Br)ccc21 (stereo not shown) [Compound 117] | 25.0 mg/kg | 0.4 to 0.5 min | 2.7 to 3.8 min | 14.6 to 32.0 min | 1.6 | 40 mg/kg |  |
| CN1C(=O)C(CCOC(=O)OC2COC2)N=C(c2ccccn2)c2cc(Br)ccc21 (stereo not shown) [Compound 134] |  |  |  |  |  | 20 mg/kg |  |
| Cc1cnc2n1-c1ccc(Br)cc1C(c1ccccn1)=NC2CCOCc1ccccc1 (stereo not shown) [Compound 144] |  |  |  |  |  | 3.8 mg/kg |  |
| CC(=O)OCCC1N=C(c2ccccn2)c2cc(Br)ccc2-n2c(C)cnc21.O=S(=O)(O)c1ccccc1 (stereo not shown) [Compound 145D] | 7.5 mg/kg | 0.2 to 0.5 min | 1.7 to 19.9 min | 23.0 to 63.0 min | >2.3 | >16.9 mg/kg |  |
| COC(=O)CCC1N=C(c2ccccn2)c2cc3nc(C(F)(F)F)sc3cc2N(C)C1=O (stereo not shown) [Compound 180] |  |  |  |  |  | 40 mg/kg |  |
| CN(C)C(=O)CN1N=C(c2ccccn2)c2cc(Br)ccc2N(C)C1=O [Compound 258] |  |  |  |  |  |  | 40 mg/kg |
| COC(=O)CCN1N=C(c2ccccn2)c2cc(Br)ccc2N(C)C1=O [Compound 259] |  |  |  |  |  |  | >20 mg/kg |
| C=CC1(OC(=O)CCN2N=C(c3ccccn3)c3cc(Br)ccc3N(C)C2=O)COC1 [Compound 262] |  |  |  |  |  |  | >20 mg/kg |

| SMILES | Minimal effective anesthetic dose (SD rats [1]) | Onset time (SD rats [1]) | Righting feflex duration (SD rats [1]) | Sedation Duration (SD rats [1]) | TI (SD rats [2]) | MLD (SD rats [2]) | MLD (SD rats [2]; SD) |
| --- | --- | --- | --- | --- | --- | --- | --- |
| CN1C(=O)N(CCC#N)N=C(c2ccccn2)c2cc(Br)ccc21 [Compound 263] |  |  |  |  |  |  | 40 mg/kg |
| CCn1nnc(CCN2N=C(c3ccccn3)c3cc(Br)ccc3N(C)C2=O)n1 [Compound 265] |  |  |  |  |  | 40 mg/kg |  |
| CCn1nnnc1CN1N=C(c2ccccn2)c2cc(Br)ccc2N(C)C1=O [Compound 268] |  |  |  |  |  | 40 mg/kg |  |
| CCn1nnc(CN2N=C(c3ccccn3)c3cc(Br)ccc3N(C)C2=O)n1 [Compound 269] |  |  |  |  |  |  | >36 mg/kg |
| COc1cc(CCN2N=C(c3ccccn3)c3cc(Br)ccc3N(C)C2=O)on1 [Compound 270] |  |  |  |  |  |  | 29.64 mg/kg |
| CCOc1cc(CCN2N=C(c3ccccn3)c3cc(Br)ccc3N(C)C2=O)on1 [Compound 271] |  |  |  |  |  |  | 30 mg/kg |
| CC(C)Oc1cc(CCN2N=C(c3ccccn3)c3cc(Br)ccc3N(C)C2=O)on1 [Compound 272] |  |  |  |  |  |  | 30 mg/kg |
| CCOC(=O)C(C)N1N=C(c2ccccn2)c2cc(Br)ccc2N(C)C1=O (stereo not shown) [Compound 276] |  |  |  |  |  |  | 20 mg/kg |
| CC(C)OC(=O)C(C)N1N=C(c2ccccn2)c2cc(Br)ccc2N(C)C1=O (stereo not shown) [Compound 277] |  |  |  |  |  |  | 20 mg/kg |
| CCOC(=O)C(C(C)C)N1N=C(c2ccccn2)c2cc(Br)ccc2N(C)C1=O (stereo not shown) [Compound 278] |  |  |  |  |  | 40 mg/kg |  |
| CC(C)C(=O)OC(CN1N=C(c2ccccn2)c2cc(Br)ccc2N(C)C1=O)C(C)C (stereo not shown) [Compound 280] |  |  |  |  |  |  | 10 mg/kg |
| CCC(=O)CN1N=C(c2ccccn2)c2cc(Br)ccc2N(C)C1=O [Compound 281] |  |  |  |  |  |  | 40 mg/kg |
| CCC(CN1N=C(c2ccccn2)c2cc(Br)ccc2N(C)C1=O)OC(=O)C(C)C (stereo not shown) [Compound 282] |  |  |  |  |  | 15 mg/kg |  |
| CN1C(=O)N(CCc2cc(Br)no2)N=C(c2ccccn2)c2cc(Br)ccc21 [Compound 283] |  |  |  |  |  |  | 40 mg/kg |
| CN1C(=O)N(CCOCc2ccccc2)N=C(c2ccccn2)c2cc(Br)ccc21 [Compound 285] |  |  |  |  |  |  | 15 mg/kg |
| CCN(C(=O)OCN1N=C(c2ccccn2)c2cc(Br)ccc2N(C)C1=O)C(C)C [Compound 296] |  |  |  |  |  |  | 15 mg/kg |
| CN1C(=O)N(C[n+]2ccccc2)N=C(c2ccccn2)c2cc(Br)ccc21 [Compound 297] |  |  |  |  |  |  | 5 mg/kg |
| CN1C(=O)N(CCOC(=O)CCCl)N=C(c2ccccn2)c2cc(Br)ccc21 [Compound 299] |  |  |  |  |  |  | 15 mg/kg |
| C=CC(=O)OCCN1N=C(c2ccccn2)c2cc(Br)ccc2N(C)C1=O [Compound 301] |  |  |  |  |  |  | 27.4 mg/kg |
| CC(C)OC(=O)OCCN1N=C(c2ccccn2)c2cc(Br)ccc2N(C)C1=O [Compound 302] |  |  |  |  |  |  | 20 mg/kg |
| CCOC(=O)CN1N=C(c2ccccn2)c2cc(Br)ccc2N=C1SC [Compound 306] |  |  |  |  |  | 40 mg/kg |  |
| Cc1cnc2n1-c1ccc(Br)cc1C(c1ccccn1)=NN2CCOC(=O)OC(C)C [Compound 316] |  |  |  |  |  |  | 10 mg/kg |
| Cc1c[n+]2c3n1-c1ccc(Br)cc1C(c1ccccn1)=NN3CC2 [Compound 321] |  |  |  |  |  |  | 10 mg/kg |
| O=CN1CCN2N=C(c3ccccn3)c3cc(Br)ccc3N=C12 [Compound 322] |  |  |  |  |  | 34 mg/kg |  |
| CN1C2=NCCN2N=C(c2ccccn2)c2cc(Br)ccc21 [Compound 324] |  |  |  |  |  |  | >15.7 mg/kg |
